In US20220347171A1, “TREATMENT OF PRURIGO NODULARIS” (TREVI THERAPEUTICS, INC., priority 2016, published 2022):
Where a name gives a salt, the structure may show the parent alone.

Tested on: prurigo nodularis patients
Experiment: TR03ext (Example 3): PAS prurigo lesions with excoriations/crusts; Stage 0 0%, Stage 1 1%-25%, Stage 2 26%-50%, Stage 3 51%-75%, Stage 4 76%-100%
Assay type: in vivo, human
Text: In some embodiments, after the treatment the patient experiences a substantial reduction of itch that is characterized by at least one category/stage improvement in Prurigo Activity Score (PAS). In particular embodiments, after the treatment the patient experiences a reduction of itch that results in at least one category/stage improvement in Prurigo Activity Score (PAS) domains of number of prurigo lesions, prurigo lesions with excoriations/crusts and/or healed prurigo lesions. The PAS consists of 7 qualitative and quantitative measurements related to the examination of the skin. Type, number, distribution, affected body parts, and quantitative number of lesions in a representative body part are documented. The biggest lesion and the most representative lesion are monitored with documentation of height and area measurements. Prurigo lesion activity is recorded as a percentages based on their stage (0-4). In some embodiments, number measurements of lesions on the body have four numerical categories: 0, 1-19, 20-100 and >100. In some embodiments, prurigo lesions with excoriations/crusts have five categories: Stage 4 (76%-100%), Stage 3 (51%-75%), Stage 2 (26%-50%), Stage 1 (1-25%) and Stage 0 (0%). In some embodiments, healed prurigo lesions have five categories: Stage 4 (0-24%), Stage 3 (25-49%), Stage 2 (50-74%), Stage 1 (75%-99%), Stage 0 (100%).
This clinical study was a Phase 2 Open Label Extension Study (clinical study TR03ext) of the randomized, double-blind, 3-parallel arm, placebo controlled dose ranging study described in Example 2. All those subjects who were randomized, and then completed Example 2 study, were eligible to participate in the Extension Study.
The primary endpoint was a description of the overall incidence and nature of Treatment-Emergent AEs (TEAES) during weeks 5-50 of the study. Exploratory efficacy endpoints included Change from Baseline patient reported outcome measures of Worst itch NRS, itchy VRS and ItchyQoL, by Treatment Period study visit and Baseline NRS score. There was also an assessment of any potential skin lesion changes over time using the metrics of the PAS.
Patients in Extension Study were titrated over a dose range of 30 mg QD to 180 mg BID based on tolerability. The selected dose range was based on Example 2 study whereby patients were titrated from a 30 mg QD dose either to 30 mg BID, 60 mg BID, 90 mg BID, 120 mg BID or a 180 mg BID dose. The highest dose proposed was 180 mg BID (360 mg daily dose), and was well below the highest recommended daily treatment of 160 mg IV (equivalent to 960 mg oral) for the current marketed parenteral administered product.
Table 15, 16 and 17 display excoriations/crusts lesion PAS data for subjects who received treatment for at least 6 months, subjects who received treatment for at least 9 months and subjects who completed 50 weeks of treatment in the study, respectively. The status of the prurigo lesions with excoriations/crusts is reported as percentages based on their stage (0-4) using a grading system: Stage 0 (0% excoriations/crusts); Stage 1 (1%-25% excoriations/crusts); Stage 2 (26%-50% excoriations/crusts); Stage 3 (51%-75% excoriations/crusts); Stage 4: (76%-100% excoriations/crusts). Thus, the higher the stage, the more severe is the prurigo skin pathology.

[1] = treatment for at least 6 months

## Oc1ccc2c3c1OC1[C@@H](O)CC[C@@]4(O)[C@@H](C2)N(CC2CCC2)CC[C@]314 (stereo partly drawn) [Nalbuphine, 17-(cyclobutylmethyl)-4,5α-epoxymorphinian-3, 6α, 14-triol, hydrochloride]
After 6 months, 13/16
  Subjects with at least one category improvement (lesser stage) in the percentage of excoriations/crust lesions (PAS): 81.2%
After 9 months, 9/13
  Subjects with at least one category improvement (lesser stage) in the percentage of excoriations/crust lesions (PAS): 69.2%
After 12 months, 8/12
  Subjects with at least one category improvement (lesser stage) in the percentage of excoriations/crust lesions (PAS): 66.6%
Treatment for 50 weeks
  Excoriated/Crusts PAS Category Shift: Baseline Stage 0 to Last Observed Stage 0: 1 (7.1%) Number (%) of Subjects
  Excoriated/Crusts PAS Category Shift: Baseline Stage 0 to Last Observed Stage 1: 0 Number (%) of Subjects
  Excoriated/Crusts PAS Category Shift: Baseline Stage 0 to Last Observed Stage 2: 0 Number (%) of Subjects
  Excoriated/Crusts PAS Category Shift: Baseline Stage 0 to Last Observed Stage 3: 0 Number (%) of Subjects
  Excoriated/Crusts PAS Category Shift: Baseline Stage 0 to Last Observed Stage 4: 0 Number (%) of Subjects
  Excoriated/Crusts PAS Category Shift: Baseline Stage 1 to Last Observed Stage 0: 0 Number (%) of Subjects
  Excoriated/Crusts PAS Category Shift: Baseline Stage 1 to Last Observed Stage 1: 1 (7.7%) Number (%) of Subjects
  Excoriated/Crusts PAS Category Shift: Baseline Stage 1 to Last Observed Stage 2: 0 Number (%) of Subjects
  Excoriated/Crusts PAS Category Shift: Baseline Stage 1 to Last Observed Stage 3: 0 Number (%) of Subjects
  Excoriated/Crusts PAS Category Shift: Baseline Stage 1 to Last Observed Stage 4: 1 (7.7%) Number (%) of Subjects
  Excoriated/Crusts PAS Category Shift: Baseline Stage 2 to Last Observed Stage 0: 0 Number (%) of Subjects
  Excoriated/Crusts PAS Category Shift: Baseline Stage 2 to Last Observed Stage 1: 5 (38.5%) Number (%) of Subjects
  Excoriated/Crusts PAS Category Shift: Baseline Stage 2 to Last Observed Stage 2: 0 Number (%) of Subjects
  Excoriated/Crusts PAS Category Shift: Baseline Stage 2 to Last Observed Stage 3: 0 Number (%) of Subjects
  Excoriated/Crusts PAS Category Shift: Baseline Stage 2 to Last Observed Stage 4: 0 Number (%) of Subjects
  Excoriated/Crusts PAS Category Shift: Baseline Stage 3 to Last Observed Stage 0: 0 Number (%) of Subjects
  Excoriated/Crusts PAS Category Shift: Baseline Stage 3 to Last Observed Stage 1: 0 Number (%) of Subjects
  Excoriated/Crusts PAS Category Shift: Baseline Stage 3 to Last Observed Stage 2: 2 (15.4%) Number (%) of Subjects
  Excoriated/Crusts PAS Category Shift: Baseline Stage 3 to Last Observed Stage 3: 1 (7.7%) Number (%) of Subjects
  Excoriated/Crusts PAS Category Shift: Baseline Stage 3 to Last Observed Stage 4: 0 Number (%) of Subjects
  Excoriated/Crusts PAS Category Shift: Baseline Stage 4 to Last Observed Stage 0: 1 (7.7%) Number (%) of Subjects
  Excoriated/Crusts PAS Category Shift: Baseline Stage 4 to Last Observed Stage 1: 0 Number (%) of Subjects
  Excoriated/Crusts PAS Category Shift: Baseline Stage 4 to Last Observed Stage 2: 0 Number (%) of Subjects
  Excoriated/Crusts PAS Category Shift: Baseline Stage 4 to Last Observed Stage 3: 0 Number (%) of Subjects
  Excoriated/Crusts PAS Category Shift: Baseline Stage 4 to Last Observed Stage 4: 1 (7.7%) Number (%) of Subjects
  Excoriated/Crusts PAS: Last Observed PAS Result Stage 0: 2 (15.4) Number (%) of Subjects
  Excoriated/Crusts PAS: Last Observed PAS Result Stage 1: 6 (46.2) Number (%) of Subjects
  Excoriated/Crusts PAS: Last Observed PAS Result Stage 2: 2 (15.4) Number (%) of Subjects
  Excoriated/Crusts PAS: Last Observed PAS Result Stage 3: 1 (7.7) Number (%) of Subjects
  Excoriated/Crusts PAS: Last Observed PAS Result Stage 4: 2 (15.4) Number (%) of Subjects
[1]
  Excoriated/Crusts PAS Category Shift: Baseline Stage 0 to Last Observed Stage 0: 1 (5.9%) Number (%) of Subjects
  Excoriated/Crusts PAS Category Shift: Baseline Stage 0 to Last Observed Stage 1: 0 Number (%) of Subjects
  Excoriated/Crusts PAS Category Shift: Baseline Stage 0 to Last Observed Stage 2: 0 Number (%) of Subjects
  Excoriated/Crusts PAS Category Shift: Baseline Stage 0 to Last Observed Stage 3: 0 Number (%) of Subjects
  Excoriated/Crusts PAS Category Shift: Baseline Stage 0 to Last Observed Stage 4: 0 Number (%) of Subjects
  Excoriated/Crusts PAS Category Shift: Baseline Stage 1 to Last Observed Stage 0: 0 Number (%) of Subjects
  Excoriated/Crusts PAS Category Shift: Baseline Stage 1 to Last Observed Stage 1: 1 (5.9%) Number (%) of Subjects
  Excoriated/Crusts PAS Category Shift: Baseline Stage 1 to Last Observed Stage 2: 0 Number (%) of Subjects
  Excoriated/Crusts PAS Category Shift: Baseline Stage 1 to Last Observed Stage 3: 0 Number (%) of Subjects
  Excoriated/Crusts PAS Category Shift: Baseline Stage 1 to Last Observed Stage 4: 1 (5.9%) Number (%) of Subjects
  Excoriated/Crusts PAS Category Shift: Baseline Stage 2 to Last Observed Stage 0: 1 (5.9%) Number (%) of Subjects
  Excoriated/Crusts PAS Category Shift: Baseline Stage 2 to Last Observed Stage 1: 5 (29.4%) Number (%) of Subjects
  Excoriated/Crusts PAS Category Shift: Baseline Stage 2 to Last Observed Stage 2: 0 Number (%) of Subjects
